Assay results from patent US4221737A, “1-(Alkynyl)amino-1-(mercaptoalkyl)amino ethylenes” (Bristol-Myers Company, priority 1979, dated 1980).

How the values were obtained:
[1] = target: T1, histamine H2-receptors (Cavia porcellus, UniProt P47747); assay: Histamine H2-receptor antagonism, isolated guinea pig right atria; details: for Histamine ED50 after test compound / Concentration-Response Curve Displacement Factor: test compound 3 × 10^-5 M; for Histamine ED50 after test compound: 30 minute incubation, 95% limits: cimetidine 3.9-5.9 (N=8), Compound XII 3.10-5.98 (N=2), BL-5949 12.50-15.90 (N=5); for Concentration-Response Curve Displacement Factor: displacement of histamine curve to the right
T1 construct: The spontaneously beating right atrium was dissected free from other tissues; from tissue; host or cells: isolated right atrium of male Hartley guinea pigs
T1 sequence (P47747 whole entry): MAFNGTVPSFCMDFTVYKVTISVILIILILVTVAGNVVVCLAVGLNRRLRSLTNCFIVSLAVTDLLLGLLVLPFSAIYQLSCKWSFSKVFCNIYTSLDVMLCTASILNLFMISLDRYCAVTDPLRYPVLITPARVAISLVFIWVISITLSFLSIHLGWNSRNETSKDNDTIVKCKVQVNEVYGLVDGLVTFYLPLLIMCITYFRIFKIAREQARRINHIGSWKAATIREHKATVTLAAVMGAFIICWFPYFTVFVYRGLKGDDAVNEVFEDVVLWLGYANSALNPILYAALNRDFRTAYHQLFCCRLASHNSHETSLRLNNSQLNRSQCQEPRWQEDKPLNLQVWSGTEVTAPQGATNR
Method: Subsequent investigations by Hughes and Coret, Proc. Soc. […] Black et al., Agents and Actions, 3, 133 (1973) and Brimblecombe et al., Fed. […] The present comparative studies were carried out using a modification of the procedure reported by Reinhardt et al., Agents and Actions, 4, 217 (1974).
Male Hartley strain guinea pigs (350-450 gm.) were sacrificed by a blow on the head. The heart was excised and placed in a Petri dish of oxygenated (95% O2, 5% CO2) modified Krebs solution (g./liter: NaCl 6.6, KCl 0.35, MgSO4.7 H2 O 0.295, KH2 PO4 0.162, CaCl2 0.238, NaHCO3 2.1 and dextrose 2.09). The spontaneously beating right atrium was dissected free from other tissues and a silk thread (4-0) attached to each end. The atrium was suspended in a 20 ml. muscle chamber containing oxygenated modified Krebs solution maintained at 32° C. Atrial contractions were recorded isometrically by means of a Grass FT 0.03 force displacement transducer and recordings of contractile force and rate were made with a Beckman RP Dynograph.
A resting tension of 1 g. was applied to the atrium and it was allowed to equilibrate for 1 hour.
Concentration-response curve displacement factors were calculated as follows: [formula] […] [formula]

[2] = test system: gastric acid output; assay: Gastric antisecretory activity in the two hour pylorus ligated (Shay) rat; assay type: in vivo, rat (male Long Evans)
From the text: The pyloric ligation procedure in the rat was designed by Shay et al., Gastroenterology, 5, 53 (1945) for the study of perforating gastric ulcers; however, as the method became known, it was also employed as a means of studying rat gastric secretion, Shay et al., Gastroenterology, 26, 906 (1954), Brodie, D. A., Am. J. Dig. Dis., 11, 231 (1966). A modification of this procedure is presently used to evaluate compounds for gastric antisecretory activity.
Male Long Evans rats, 280-300 gm., are used. The animals are placed in individual cages and fasted for 24 hours with free access to water. Under ether anesthesia, the stomach is reached through a midline incision, and a cotton-thread ligature is placed around the pylorus. […] All compounds are solubilized with one equivalent of HCl and brought to the proper volume with water. The animals are returned to their cages from which the water bottles have been removed and two hours later are sacrificed with ether. The stomach is removed and the two hour gastric collection is drained into a graduated test tube for volume determination. Titratable acidity is measured by titrating a one ml. sample to pH 7.0 with 0.02 N NaOH, using an Autoburet and an electrometric pH meter (Radiometer). […] The percent inhibition of acid output is calculated as follows [formula]

[3] = test system: histamine-induced gastric acid output; assay: Gastric antisecretory activity in the gastric fistula dog (histamine-induced gastric acid output); assay type: in vivo, dog (beagle); details: for Percent Inhibition Acid Output: 1.5 μMole/kg iv (BL-5949: one dog at this dose)
Method: Thomas type [Thomas, J. E., Proc. Soc. exp. Biol. Med., 46, 260 (1941)] stainless steel cannulae are inserted into the stomachs of beagle dogs (10-12 kg.) just orad to the pyloric gland area near the greater curvature to provide a chronic gastric fistula. Animals are allowed to recover for at least two months before any testing is done. Dogs are fasted overnight (~18 hours) with water ad lib prior to each experiment. The dogs are placed in a sling and an eight inch inside needle catheter (C. R. Baird, Inc.) with a two inch 17 gauge needle is inserted into a leg vein for purposes of drug administration. Gastric secretions are collected every 15 minutes by gravity drainage from the opened cannula. […] A modification of the procedure described by Grossman and Konturek, Gastroenterology, 66, 517 (1974) was followed. […] Each 15 minute sample of gastric juice is measured to the nearest 0.5 ml. and titratable acidity against 0.02 N NaOH (endpoint pH 7.0) is measured with an Autoburet and pH meter (radiometer).The percent inhibition of acid output is calculated as described in the pylorus ligated rat procedure.

[4] = test system: gastric secretion; details: animals and man; cited from earlier work
[5] = target: T1, histamine H2-receptors; details: Black et al., Nature, 236, 385 (1972); cited from earlier work
[6] = cited from earlier work
[7] = test system: H2-receptor; details: cited from earlier work
[8] = test system: peptic ulcer disease; details: Gray et al., Lancet, 1 (8001), 4 (1977); cited from earlier work
[9] = clinical; cited from earlier work

Row | Structure (SMILES) | Percent Inhibition Acid Output [3] | Oral absorption / oral activity (in words) [6] | Histamine ED50 after test compound [1] | Concentration-Response Curve Displacement Factor [1] | Potency as H2 antagonist (in words) [7] | Toxicity (agranulocytosis) (in words) [9] | other results
1 | C#CCNC(=C[N+](=O)[O-])NCCSCc1[nH]cnc1C [BL-5949, 1-Nitro-2-(2-propynylamino)-2-{2-[(4-methyl-1H-imidazol-5-yl)methylthio]ethylamino}ethylene] | 88% |  |  |  |  |  | Potency as histamine H2-receptor antagonist (in words) ([1]; isolated guinea pig atria): more potent than either cimetidine or Compound XII; Potency relative to Compound XII ([2]; ip, rat): 3.7 times; Potency as inhibitor of gastric secretion (in words) ([2]; rats): more potent than either cimetidine or Compound XII; Potency as inhibitor of gastric secretion (in words) ([3]; dogs): more potent than either cimetidine or Compound XII; Potency relative to Compound XII ([3]; iv, dog): 3.8 times
2 | CNC(=S)NCCCCc1cnc[nH]1 [Burimamide] |  | oral absorption is poor |  |  |  |  | Inhibition of gastric secretion (in words) [4]: inhibits gastric secretion in animals and man; Effect at histamine H2-receptors of guinea pig atria (in words) [5]: a competitive antagonist of these receptors
3 | CNC(=NC#N)NCCSCc1nc[nH]c1C [Cimetidine] | 53% |  | 4.80 µg/mL | 25.26 | as effective an H2 antagonist as metiamide | without producing agranulocytosis | Effectiveness in peptic ulcer disease (in words) [8]: an effective therapeutic agent in the treatment of peptic ulcer disease
4 | CNC(=C[N+](=O)[O-])NCCSCc1nc[nH]c1C [Compound XII] |  |  | 4.30 µg/mL | 17.92 |  |  | 
5 | CNC(=S)NCCSCc1nc[nH]c1C [Metiamide] |  | orally active in man |  |  | more potent than burimamide | toxicity (agranulocytosis) | 
